Measured values reported in patent US12616685B2, “Concomitant administration of glucocorticoid receptor modulator relacorilant and CYP2C9 substrates” (Corcept Therapeutics Incorporated, priority 2020, dated 2026).

Legend:
[1] = Clinical drug-drug interaction study in healthy volunteers (tolbutamide alone vs with relacorilant); conditions: for effect of relacorilant co-administration on AUC0-tz and AUCinf / reduction of Cmax on co-administration of relacorilant: 500 mg tolbutamide with 350 mg relacorilant vs tolbutamide alone; for AUC0-tz, Ratio of Geometric LSMs (%) / AUCinf, Ratio of Geometric LSMs (%) / Cmax, Ratio of Geometric LSMs (%): 100*(Test/Reference), Treatment E (with relacorilant) vs Treatment B (tolbutamide alone)
Experimental: An open-label, crossover study was conducted in healthy subjects to determine the effect of relacorilant on the plasma exposure of tolbutamide, a known substrate of CYP2C9. A single 500 mg dose of tolbutamide was administered alone and pharmacokinetic (PK) samples were collected before dosing (0 hour) and at 0.5, 1, 1.5, 2, 2.5, 3, 4, 6, 8, 12, 18, 24, 36, and 48 hours post-dose. Relacorilant (350 mg) was then administered once a day for 10 consecutive days. On the following day, a single 500 mg dose of tolbutamide was administered in combination with relacorilant 350 mg and pharmacokinetic (PK) samples were again collected at pre-dose through 48 hours post-dose at the same timepoints as described above. The plasma concentrations of tolbutamide and its metabolite, 4-hydroxy tolbutamide were evaluated by validated bioanalytical assays on each dosing occasion of tolbutamide.
• ANOVA, analysis of variance; AUCinf, AUC from time 0 extrapolated to infinity; AUC0-tz, AUC from time 0 until the time of the last measurable concentration; Cmax, maximum plasma concentration; CV %, coefficient of variation; LSM, least squares mean. • Treatment B: Single oral dose of 500 mg tolbutamide (Reference). • Treatment E: Single oral dose of 500 mg tolbutamide and 350 mg relacorilant administered on Day 15 followed by oral doses of 350 mg relacorilant administered QD on Days 16 and 17 (Test). • Parameters were ln-transformed prior to analysis. • Geometric Least Square means (LSMs) were calculated by exponentiating the LSMs from the ANOVA. • Ratio of Geometric LSMs=100*(Test/Reference); where Test is Treatment E and Reference is Treatment B.

[2] = co-administered with CYP2C9 inhibitor sulfaphenazole, human subjects; Perkins et al. 2018; cited from earlier work
CYP2C9 = CYP2C9 (Homo sapiens, UniProt P11712); test: biochemical
Chain of CYP2C9 (P11712 whole entry): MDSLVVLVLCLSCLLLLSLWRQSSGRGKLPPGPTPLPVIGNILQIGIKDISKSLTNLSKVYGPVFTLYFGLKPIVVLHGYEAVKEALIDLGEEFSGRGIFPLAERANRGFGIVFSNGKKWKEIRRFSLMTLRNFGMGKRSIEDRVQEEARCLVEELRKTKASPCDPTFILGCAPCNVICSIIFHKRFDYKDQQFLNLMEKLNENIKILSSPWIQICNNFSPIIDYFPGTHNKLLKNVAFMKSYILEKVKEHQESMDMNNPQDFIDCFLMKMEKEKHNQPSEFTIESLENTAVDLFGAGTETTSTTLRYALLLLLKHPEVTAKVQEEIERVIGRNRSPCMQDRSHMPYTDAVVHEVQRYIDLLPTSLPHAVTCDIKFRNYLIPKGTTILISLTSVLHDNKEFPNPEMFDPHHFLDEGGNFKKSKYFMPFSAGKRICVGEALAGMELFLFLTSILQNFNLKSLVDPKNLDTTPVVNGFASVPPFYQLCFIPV
Experimental: Cytochrome P450 (CYP) isoforms CYP1A2, CYP2C9, CYP2C19, CYP2D6, and CYP3A4, heterologously expressed in E. coli, were obtained from Cypex and mixed to produce a 5-CYP mix. A selective and FDA accepted substrate for each isoform was present in the reaction at a concentration around its Km.
The 5-CYP mix and a CYP substrate cocktail were added and the tubes warmed for 3 minutes whilst mixing on a BioShake IQ (37° C., 1500 rpm). NADPH (final concentration 1 mM) was added and the mixture was incubated for 10 minutes. Methanol containing an internal standard (1 μM tolbutamide) was then added to all samples, and these were mixed and placed at −20° C. for ≥1 hour to quench the reaction and allow protein to precipitate.
All samples were centrifuged (2500×g, 20 minutes, 4° C.). The supernatants were transferred to a fresh 96 well plate, compatible with an autosampler. The plate was sealed with a pre-slit silicone mat and the metabolites were analyzed by LC-MS/MS. […]
The final concentration in the assay of the 5-CYP mix was 32.5 pmol/ml for each of the enzymes evaluated (i.e., CYP1A2, CYP2C9, CYP2C19, CYP2D6, and CYP3A4). […]
The metabolites measured were: CYP1A2, 1-hydroxytacrine; CYP2C9, 4′-hydroxy diclofenac; CYP2C19, 4′-hydroxymephenytoin; CYP2D6, hydroxybufuralol; CYP3A4, 1′hydroxymidazolam. […]

[3] = plasma, single oral 500 mg tolbutamide alone, healthy subjects
[4] = plasma, single oral 500 mg tolbutamide with 350 mg relacorilant after once-daily relacorilant, healthy subjects

effect of relacorilant co-administration on AUC0-tz and AUCinf [1] | reduction of Cmax on co-administration of relacorilant [1] | AUC0-tz, Ratio of Geometric LSMs (%) [1] [%] | AUCinf, Ratio of Geometric LSMs (%) [1] [%] | Cmax, Ratio of Geometric LSMs (%) [1] [%] | AUC0-tz, Geometric LSM, Reference (Day 2) Treatment B [1, 3] [µg·h/mL] | AUCinf, Geometric LSM, Reference (Day 2) Treatment B [1, 3] [µg·h/mL] | Cmax, Geometric LSM, Reference (Day 2) Treatment B [1, 3] [ng/mL] | AUC0-tz, Geometric LSM, Test (Day 15) Treatment E [1, 4] [µg·h/mL] | AUCinf, Geometric LSM, Test (Day 15) Treatment E [1, 4] [µg·h/mL] | Cmax, Geometric LSM, Test (Day 15) Treatment E [1, 4] [ng/mL] | AUC(0-inf) ([1]; human, plasma, po, 500 mg) [µg·h/mL] | AUC(0-t) ([1]; human, plasma, po, 500 mg) [µg·h/mL] | Cmax ([1]; human, plasma, po, 500 mg) [ng/mL] | IC50 (CYP2C9) [nM] | Compound | fold increase in plasma level of tolbutamide (AUC) with sulfaphenazole [2]
no effect | approximately 37% | 88.80 | 89.91 | 63.49 | 8.619 | 8.954 | 604.3 | 7.653 | 8.051 | 383.6 | – | – | – | – | CCCCNC(=O)NS(=O)(=O)c1ccc(CO)cc1 [4-OH Tolbutamide, 4-hydroxy tolbutamide] | –
no effect | approximately 31% | 89.11 | 89.54 | 69.22 | – | – | – | – | – | – | 602 | 579 | 42400 | – | CCCCNC(=O)NS(=O)(=O)c1ccc(C)cc1 [Tolbutamide, tolbutamide, reference compound] | more than 5 fold
– | – | – | – | – | – | – | – | – | – | – | – | – | – | 2100 | Cn1cc(S(=O)(=O)N2CCC3=Cc4c(cnn4-c4ccc(F)cc4)C[C@]3(C(=O)c3cc(C(F)(F)F)ccn3)C2)cn1 [Relacorilant, (R)-(1-(4-fluorophenyl)-6-((1-methyl-1H-pyrazol-4-yl)sulfonyl)-4,4a,5,6,7,8-hexahydro-1H-pyrazolo[3,4-g]isoquinolin-4a-yl)(4-(trifluoromethyl)pyridine-2-yl)methanone] | –
